Results published in patent US10745395B2, “Compounds for their use as drugs for the treatment and/or the prevention of infection(s) caused by biofilm-forming bacteria” (CENTRE NATIONAL DE LA RECHERCHE SCIENTIFIQUE, priority 2014, dated 2020).

Assays:
Type in all cases: cell-based, Pseudomonas aeruginosa
[1] = system: P. aeruginosa strain PAR 20; assay: Number of viable bacteria in early and mature biofilm (viable count)
Description: (§1) Biofilm formation and the number of viable bacteria were checked in parallel in the following time intervals: 0, 0.5, 8, 24, 48 hours, in accordance with the procedure described above. Biofilm thickness was estimated by staining it with Cango Red and measuring optical density while number of viable bacteria was performed using the standard viable count method. (Allison G C, Sutherland I W. A staining technique for bacteria and its correlation to extracellular carbohydrate production. J Microbiol Meth 2, 93-99 (1984)).
(§2) After the addition of iminosugars (compounds 1, 2, 3 and 4), the biofilm formation and the number of viable bacteria were checked in the following time intervals: 48, 48.5, 56, 72, 96 hours.
(§3) Numbers of viable bacteria contained in the early and mature biofilm were estimated on separate plates with wells filled with tested P. aeruginosa strains as described above (PAR 5, PAR 20, PAR 50).
(§4) At the same time intervals, biofilm content in each well was removed and mixed by multiple pippeting and transferred to sterile tubes. Then decimal dilutions of the bacterial suspension were made in TSB broth, plated on McConkey Agar (Oxoid), and incubated at 37° C. for 24 hours.
(§5) Numbers of colonies grown on platter were counted and total numbers of the viable bacteria calculated as colony forming units (CFU) per ml.
(§6) The results depict logs of CFU/ml for three P. aeruginosa strains: PAR 5, PAR 20 and PAR 50 measured at different time intervals (0 hours, 8 hours, 24 hours, 48 hours, 56 hours, 72 hours and 96 hours). The detection limit is 100 CFU/ml.

[2] = system: P. aeruginosa strain PAR 5; assay: as above
Description: as §1, §2, §3, §4, §5, §6

[3] = system: P. aeruginosa strain PAR 50; assay: as above
Description: as §1, §2, §3, §4, §5, §6

[4] = system: P. aeruginosa strain PAR 5 biofilm; assay: Early biofilm model, Congo red staining; conditions: for absorbance (Congo red, biofilm formation): 0.9 mM, 492 nm
Description: (§7) P. aeruginosa biofilm was set-up in sterile plastic 96-well plates with adherent surface (Greiner Bio-One, USA).
(§8) Twenty microliter quantities of the bacterial stock suspensions, prepared as described above, were added to each well followed with 180 μl of sterile TSB. Final concentration of the bacteria was 1×10^8 CFU/ml.
(§9) The plates were centrifuged for 10 minutes at 2000 rpm to sediment bacteria on the bottom of each well and then incubated for 72 hours (37° C., aerobic conditions).
(§10) Biofilm quantity was determined using Congo red dye according to a modified procedure described by Allison et al. (Allison G C, Sutherland I W. A staining technique for bacteria and its correlation to extracellular carbohydrate production. J Microbiol Meth 2, 93-99 (1984)).
(§11) Briefly, at different time points (0, 6, 18, 24, 48 and 72 hours), the culture medium was gently removed from wells by using the pipette and immediately 200 μl of 0.1% Congo red solution was added. The plates were left for 30 minutes at room temperature and then 10 minutes before the end of staining, the plate was centrifuged for 10 minutes at 2000 rpm and then washed twice with buffered saline to remove unbound dye. Absorbance was measured at λ=492 nm wavelength using spectrophotometer (Awarness Technology Inc., Palm City, Fla., USA). All measurements were performed in triplicates and mean values±SD are given.
(§12) Early biofilm model: formation of early biofilm under influence of the tested substances was observed by filling wells of a 96-well plate with 20 μl of P. aeruginosa suspension and 180 μl of TSB, as described above. Tested iminosugars (compounds 1, 2, 3 and 4) were added immediately after setting-up the bacteria at a final concentration of 0.9 mM. Then, the plate was gently mixed and incubated for 48 hours at 37° C.
as §1
(§13) P. aeruginosa suspension cultures in TSB broth alone were used as a control.

[5] = system: P. aeruginosa strain PAR 20 biofilm; assay: Early biofilm model, Congo red staining; conditions: for absorbance (Congo red, biofilm formation): early biofilm, 0.9 mM, 492 nm
Description: as §7, §8, §9, §10, §11, §12, §1, §13

[6] = system: P. aeruginosa strain PAR 50 biofilm; assay: Early biofilm model, Congo red staining; conditions: for absorbance (Congo red, biofilm formation): early biofilm, 0.9 mM, 492 nm
Description: as §7, §8, §9, §10, §11, §12, §1, §13

[7] = system: P. aeruginosa strain PAR 5 biofilm; assay: Reduction of biofilm growth (percent vs culture control)
Source text: (§14) FIG. 4A represents the effect of the tested compounds (1, 2, 3 and 4) on exopolysaccharide biosynthesis in the early stages and mature P. aeruginosa biofilm formation, strain PAR 5. The abscissa represents the time (in hours) in order to differentiate early biofilm and mature biofilm, and the ordinate represents the percentage of the biofilm reduction.
as §12
(§15) Mature biofilm model: the tested substances were added 48 hours after adherence of bacteria to the wells in a 96-well plate. The growth conditions of P. aeruginosa were exactly the same, as described above for the early biofilm model.
(§16) The effect of the tested compounds (1, 2, 3 and 4) on the reduction of biofilm growth has also been studied on the three P. aeruginosa strains PAR 5, PAR 20, PAR 50.
(§17) (Percent decrease in biofilm thickness was obtained as a mean value from 3 consecutive measurements of the Congo Red stained biofilm using spectrophotometer after addition of the tested iminosugars in comparison to control regarded as 100%).

[8] = system: P. aeruginosa strain PAR 5 biofilm; assay: Mature biofilm model, Congo red staining; conditions: for absorbance (Congo red, biofilm development): mature biofilm, compound added 48 h after induction of biofilm
Description: as §10, §11, §15, §2

[9] = system: P. aeruginosa strain PAR 20 biofilm; assay: Mature biofilm model, Congo red staining; conditions: for absorbance (Congo red, biofilm development): mature biofilm, compound added 48 h after induction of biofilm
Description: as §10, §11, §15, §2

[10] = system: P. aeruginosa strain PAR 50 biofilm; assay: Mature biofilm model, Congo red staining; conditions: for absorbance (Congo red, biofilm development): mature biofilm, compound added 48 h after induction of biofilm
Description: as §10, §11, §15, §2

[11] = system: P. aeruginosa strain PAR 20 biofilm; assay: Reduction of biofilm growth (percent vs culture control)
Source text: as §14, with “4B” for “4A”, “20.” for “5.”
as §12, §15, §16, §17

[12] = system: P. aeruginosa strain PAR 50 biofilm; assay: as above
Source text: as §14, with “4C” for “4A”, “50.” for “5.”
as §12, §15, §16, §17

[13] = in comparison with culture control

CCC[C@H]1N[C@@H](CO)[C@H](O)[C@H]1O [Compound 4, β-1-C-propyl-1,4-dideoxy-1,4-imino-L-arabinitol]
number of viable P. aeruginosa ([1]; early biofilm, 0 h): 5 × 10^6 CFU/ml | number of viable P. aeruginosa ([1]; early biofilm, 8 h): 2 × 10^7 CFU/ml | number of viable P. aeruginosa ([1]; early biofilm, 24 h): 4 × 10^8 CFU/ml | number of viable P. aeruginosa ([1]; early biofilm, 48 h): 3 × 10^9 CFU/ml | number of viable P. aeruginosa ([1]; mature biofilm, 56 h): 9 × 10^8 CFU/ml | number of viable P. aeruginosa ([1]; mature biofilm, 72 h): 8 × 10^7 CFU/ml | number of viable P. aeruginosa ([1]; mature biofilm, 96 h): 4 × 10^8 CFU/ml | number of viable P. aeruginosa ([2]; early biofilm, 0 h): 9 × 10^6 CFU/ml | number of viable P. aeruginosa ([2]; early biofilm, 8 h): 3 × 10^6 CFU/ml | number of viable P. aeruginosa ([2]; early biofilm, 24 h): 9 × 10^7 CFU/ml | number of viable P. aeruginosa ([2]; early biofilm, 48 h): 3 × 10^7 CFU/ml | number of viable P. aeruginosa ([2]; mature biofilm, 56 h): 4 × 10^8 CFU/ml | number of viable P. aeruginosa ([2]; mature biofilm, 72 h): 3 × 10^8 CFU/ml | number of viable P. aeruginosa ([2]; mature biofilm, 96 h): 2 × 10^9 CFU/ml | number of viable P. aeruginosa ([3]; early biofilm, 0 h): 1 × 10^7 CFU/ml | number of viable P. aeruginosa ([3]; early biofilm, 8 h): 2 × 10^8 CFU/ml | number of viable P. aeruginosa ([3]; early biofilm, 24 h): 7 × 10^8 CFU/ml | number of viable P. aeruginosa ([3]; early biofilm, 48 h): 1 × 10^8 CFU/ml | number of viable P. aeruginosa ([3]; mature biofilm, 56 h): 3 × 10^9 CFU/ml | number of viable P. aeruginosa ([3]; mature biofilm, 72 h): 9 × 10^9 CFU/ml | number of viable P. aeruginosa ([3]; mature biofilm, 96 h): 1 × 10^9 CFU/ml | biofilm formation at 8 hours, 24 hours and 48 hours ([4]; early biofilm): no biofilm formation | absorbance (Congo red, biofilm formation) ([4]; early biofilm, 8 hours): about 0.25 a.u. | absorbance (Congo red, biofilm formation) ([4]; early biofilm, 24 hours): about 0.25 a.u. | absorbance (Congo red, biofilm formation) ([4]; early biofilm, 48 hours): about 0.25 a.u. | effect on formation of an early biofilm [4, 13]: inhibit the formation of an early biofilm | absorbance (Congo red, biofilm formation) ([5]; 8 hours): about 0.6 a.u. | absorbance (Congo red, biofilm formation) ([5]; 24 hours): about 1.0 a.u. | absorbance (Congo red, biofilm formation) ([5]; 48 hours): about 0.75 a.u. | effect on formation of an early biofilm [5, 13]: inhibit the formation of an early biofilm | absorbance (Congo red, biofilm formation) ([6]; 8 hours): about 0.8 a.u. | absorbance (Congo red, biofilm formation) ([6]; 24 hours): about 1.4 a.u. | absorbance (Congo red, biofilm formation) ([6]; 48 hours): about 0.9 a.u. | effect on formation of an early biofilm [6, 13]: inhibit the formation of an early biofilm | reduction of biofilm growth ([7]; 8 hours of incubation): about 90% | reduction of biofilm growth ([7]; 24 hours of incubation): about 90% | reduction of biofilm growth ([7]; 48 hours of incubation): about 25% | reduction of biofilm growth ([7]; 72 hours of incubation): about 10% | effect on biofilm growth ([7]; notably an early biofilm): can reduce the biofilm growth | influence on mature biofilm formation [8]: weak influence | absorbance (Congo red, biofilm development) ([8]; 48 hours): about 0.5 a.u. | absorbance (Congo red, biofilm development) ([8]; 56 hours): about 1.25 a.u. | absorbance (Congo red, biofilm development) ([8]; 72 hours): about 1.25 a.u. | absorbance (Congo red, biofilm development) ([8]; 96 hours): about 0.5 a.u. | influence on mature biofilm formation [9]: weak influence | absorbance (Congo red, biofilm development) ([9]; 48 hours): about 0.5 a.u. | absorbance (Congo red, biofilm development) ([9]; 56 hours): about 0.75 a.u. | absorbance (Congo red, biofilm development) ([9]; 72 hours): about 1.25 a.u. | absorbance (Congo red, biofilm development) ([9]; 96 hours): about 1.75 a.u. | influence on mature biofilm formation [10]: weak influence | absorbance (Congo red, biofilm development) ([10]; 48 hours): about 1.4 a.u. | absorbance (Congo red, biofilm development) ([10]; 56 hours): about 1.4 a.u. | absorbance (Congo red, biofilm development) ([10]; 72 hours): about 1.5 a.u. | absorbance (Congo red, biofilm development) ([10]; 96 hours): about 1.75 a.u. | reduction of biofilm growth ([11]; 8 hours of incubation): about 60% | reduction of biofilm growth ([11]; 24 hours of incubation): about 35% | reduction of biofilm growth ([11]; 48 hours of incubation): about 45% | reduction of biofilm growth ([11]; 72 hours of incubation): about 0% | effect on biofilm growth ([11]; notably an early biofilm): can reduce the biofilm growth | reduction of biofilm growth ([12]; 8 hours of incubation): about 60% | reduction of biofilm growth ([12]; 24 hours of incubation): about 35% | reduction of biofilm growth ([12]; 48 hours of incubation): about 45% | reduction of biofilm growth ([12]; 72 hours of incubation): about 30% | effect on biofilm growth ([12]; notably an early biofilm): can reduce the biofilm growth
